This note sets out measurements from patent US4269857A, “Control of plant-virus diseases” (Kureha Kagaku Kogyo Kabushiki Kaisha, priority 1978, dated 1981).

What is called inhibition is the change of the read-out against control, counted positive when it falls.

The first assay relates to cucumber mosaic virus (CMV). In words: Inhibition of CMV disease transmitted by aphids (Myzus persicae) on cucumber plants. Format: in vivo. To be noted: CMV via wingless aphids, 500 ppm, sprayed before aphid transmigration, one week after spray. The source says:
The followings are the test results of the compounds of the present invention in the plant virus disease-controlling experiments. In the experiments one of the compounds of the present invention was formulated as in the above-mentioned Example 3 and after diluting the formulated composition with water to a predetermined concentration.
The compounds evaluated as A in Test results 2 were further tested as follows:
The cucumber plants growing for two weeks after sowing in greenhouse were sprayed by each liquid containing each compound at a concentration of 500 ppm (variety of cucumber: Kinseisanto). After drying at room temperature about 3 hours, wingless aphids (Myzus persicae, Sulzer) which had been put on the suffered cucumber plant from CMV and shipped the plant sap containing CMV were transmigrated to the sprayed cucumber plants at a rate of 5 insects per plant. On the next day of the transmigration, the insects were killed by spraying dichlorvos in the plants. After one week of the spray of the compound of the present invention, the effectiveness of the compound in inhibiting the occurrence of the sign of disease due to the virus was investigated as the number of plants without the sign of disease per number of plants sprayed. As the control, water was sprayed.
As for `CCCCCCCCCCNC[C@@H](O)[C@@H](O)[C@H](O)[C@H](O)CO` [Compound 26], the “Evaluation (number of plants without the sign of disease per number of plants sprayed)” value was “B (7/10-5/10)”.
On to `CCCCCCCCCCCCNC[C@H](O)[C@@H](O)[C@H](O[C@@H]1O[C@H](CO)[C@H](O)[C@H](O)[C@H]1O)[C@H](O)CO` [Compound 58], for which the “Evaluation (number of plants without the sign of disease per number of plants sprayed)” value is given as “B (7/10-5/10)”.
For the molecule `CCCCCCCCCCCCCCNC[C@H](O)[C@@H](O)[C@H](O)CO` [Compound 53], the “Evaluation (number of plants without the sign of disease per number of plants sprayed)” value is “A (10/10-8/10)”.
As for `CCCCCCCCCCCCNC[C@H](O)[C@@H](O)[C@H](O[C@@H]1O[C@H](CO)[C@@H](O)[C@H](O)[C@H]1O)[C@H](O)CO` [Compound 61], the “Evaluation (number of plants without the sign of disease per number of plants sprayed)” value is reported as “B (7/10-5/10)”.
Turning to `CCCCCCCCCCCCNC[C@H](O)[C@H](O)[C@H](O)CO` [Compound 48], the “Evaluation (number of plants without the sign of disease per number of plants sprayed)” value is on record as “A (10/10-8/10)”.
As for `CCCCCCCCCCCCCCCCCCNC[C@H](O)[C@@H](O)[C@H](O)[C@H](O)CO` [Compound 24, 1-deoxy-1-n-octadecylamino-D-glucitol], the “Evaluation (number of plants without the sign of disease per number of plants sprayed)” value is listed as “A (10/10-8/10)”.
For the molecule `CCCCCCCCCCCCNC[C@H](O)[C@@H](O)[C@H](O)[C@H](O)CO` [Compound 12], the “Evaluation (number of plants without the sign of disease per number of plants sprayed)” value is reported as “A (10/10-8/10)”.
In the case of `CCCCCCCCCCCCNC[C@H](O)[C@@H](O)[C@H](O)[C@H](O)CO` [Compound 16], the “Evaluation (number of plants without the sign of disease per number of plants sprayed)” value is on record as “A (10/10-8/10)”.
On the same count and under the same terms, the entry for `CCCCCCCCCCNC[C@@H](O)[C@@H](O)[C@H](O)[C@H](O)CO` [Compound 27] is “B (7/10-5/10)”.

A further assay deals with tobacco mosaic virus (TMV). In words: Inhibition of local lesion formation by TMV, half-leaf method on kidney bean primary leaves. To be noted: TMV, kidney bean primary leaves, 500 ppm, painted just after inoculation, half-leaf method. Format: in vivo, tobacco mosaic virus on kidney bean plants (variety: Otebo). An excerpt: In the experiments one of the compounds of the present invention was formulated as in the above-mentioned Example 3 and after diluting the formulated composition with water to a predetermined concentration.
In this test, the inhibiting action of the compound of the present invention against the formation of local lesion due to the infection of tobacco mosaic virus (TMV) was examined by the half-leaf method using primary leaves of kedny been plants (variety: Otebo). TMV was inoculated on the primary leaf of kedney been plant, and just after the inoculation, the diluted liquid of the compound was painted on the half surface of the leaf and water was painted on the other half surface of the leaf. The concentration of the compounds of the present invention in the liquid was 500 ppm, and the inoculum was adjusted to form about 50 topical lesion spots on the half surface of the leaf painted with water (control). Ten leaves were usually used for the evaluation of one compound, and the rate of inhibition of lesion spot formation was derived from the following formula: [formula]
The thus obtained rates of inhibition were evaluated according to the following criteria: […]
Regarding `CCCCCCCCCCCCCCCCCCNC[C@H](O)[C@@H](O)[C@H](O[C@@H]1O[C@H](CO)[C@H](O)[C@H](O)[C@H]1O)[C@H](O)CO` [Compound 60], the “Evaluation (rate of inhibition of lesion spot formation)” value is listed as “B (90-70)”.
On the same count and under the same terms, the entry for `CCCCCCCCCCCCNC[C@H](O)[C@@H](O)[C@H](O)[C@H](O)CO` [Compound 17] is “B (90-70)”; for `CCCCCCCCCCCCNC[C@@H](O)[C@@H](O)[C@H](O)[C@H](O)CO` [Compound 32] it is “A (100-90)”; for `CCCCCCCCCCCCNC[C@H](O)[C@H](O)[C@H](O)CO` [Compound 47] it is “A (100-90)”.
`CCCCCCCCCCCCNC[C@H](O)[C@@H](O)[C@@H](O)[C@H](O)CO` [Compound 37]: the “Evaluation (rate of inhibition of lesion spot formation)” value was “B (90-70)”.
Regarding `CCCCCCCCCCCCNC[C@H](O)[C@H](O)[C@H](O)CO` [Compound 48], the “Evaluation (rate of inhibition of lesion spot formation)” value is recorded as “A (100-90)”.
For `CCCCCCCCCCCCCCNC[C@H](O)[C@@H](O)[C@H](O)CO` [Compound 54], the “Evaluation (rate of inhibition of lesion spot formation)” value was “A (100-90)”.
For the molecule `CCCCCCCCCCCCNC[C@H](O)[C@@H](O)[C@H](O)[C@H](O)CO` [Compound 16], the “Evaluation (rate of inhibition of lesion spot formation)” value was “A (100-90)”.
Take `CCCCCCCCCCCCNC[C@@H](O)[C@@H](O)[C@H](O)[C@H](O)CO` [Compound 31]: the “Evaluation (rate of inhibition of lesion spot formation)” value is listed as “A (100-90)”.
Consider `CCCCCCCCCCCCNC[C@H](O)[C@@H](O)[C@@H](O)[C@H](O)CO` [Compound 36], for which the “Evaluation (rate of inhibition of lesion spot formation)” value is recorded as “B (90-70)”.
Take `CCCCCCCCCCCCNC[C@H](O)[C@H](O)[C@H](O)CO` [Compound 44]: the “Evaluation (rate of inhibition of lesion spot formation)” value is “B (90-70)”.
Turning to `CCCCCCCCCCCCNCC[C@@H](O)[C@H](O)[C@H](O)CO` [Compound 42], the “Evaluation (rate of inhibition of lesion spot formation)” value was “B (90-70)”.
In the case of `CCCCCCCCCCCCNC[C@@H](O)[C@@H](O)[C@H](O)[C@H](O)CO` [Compound 30], the “Evaluation (rate of inhibition of lesion spot formation)” value was “B (90-70)”.
Turning to `CCCCCCCCCCNC[C@H](O)[C@@H](O)[C@H](O)CO` [Compound 51], the “Evaluation (rate of inhibition of lesion spot formation)” value is reported as “A (100-90)”.
On the same count and under the same terms, the entry for `CCCCCCCCCCCCCCCCCCNC[C@H](O)[C@@H](O)[C@H](O[C@H]1O[C@H](CO)[C@@H](O)[C@H](O)[C@H]1O)[C@H](O)CO` [Compound 57] is “B (90-70)”.
Same read-out and setting: the entry for `CCCCCCCCCCCCCCCCCCNC[C@H](O)[C@@H](O)[C@H](O[C@@H]1O[C@H](CO)[C@@H](O)[C@H](O)[C@H]1O)[C@H](O)CO` [Compound 63] is “B (90-70)”; for `CCCCCCCCCCCCNC[C@H](O)[C@H](O)[C@H](O)CO` [Compound 46] it is “A (100-90)”.

The assay is the same for the next values; noted with them: Tobacco mosaic virus, TMV, kidney bean primary leaves, 500 ppm, painted just after inoculation, half-leaf method; read-out: Evaluation (rate of inhibition of lesion spot formation).
As to `CCCCCCCCCCCCNC[C@@H](O)[C@@H](O)[C@H](O)[C@H](O)CO` [Compound 28], the inhibition at 500 ppm lay in the range of 90 to 100%.
For `CCCCCCCCCCCCCCCCCCNC[C@H](O)[C@@H](O)[C@H](O[C@@H]1O[C@H](CO)[C@H](O)[C@H](O)[C@H]1O)[C@H](O)CO` [Compound 59], the inhibition at 500 ppm lay within 90 to 100%.
As to `CCCCCCCCCCNC[C@@H](O)[C@@H](O)[C@H](O)[C@H](O)CO` [Compound 26], the inhibition at 500 ppm fell in the range of 90 to 100%.
The same measure, in the same setting: the figure for `CCCCCCCCCCCCCCNC[C@H](O)[C@@H](O)[C@H](O)[C@H](O)CO` [Compound 18] is 70 to 90%; for `CCCCCCCCCCCCNC[C@H](O)[C@@H](O)[C@H](O[C@@H]1O[C@H](CO)[C@H](O)[C@H](O)[C@H]1O)[C@H](O)CO` [Compound 58] it is 90 to 100%.
Consider `CCCCCNC[C@H](O)[C@@H](O)[C@H](O)[C@H](O)CO` [Compound 5], for which the inhibition at 500 ppm lay in the range of 70 to 90%.
Still for that read-out and setting: the figure for `CCCCCCCCCCCCCCNC[C@H](O)[C@@H](O)[C@H](O)CO` [Compound 53] is 90 to 100%; for `CCCCCCCCCCCCCCCNC[C@H](O)[C@@H](O)[C@H](O)[C@H](O)CO` [Compound 20] it is 70 to 90%; for `CCCCCCCCCCCCCCCCNC[C@H](O)[C@@H](O)[C@H](O)[C@H](O)CO` [Compound 23] it is 70 to 90%.
Take `CCCCCCCCCCCCNC[C@H](O)[C@@H](O)[C@H](O[C@@H]1O[C@H](CO)[C@@H](O)[C@H](O)[C@H]1O)[C@H](O)CO` [Compound 61]: the inhibition at 500 ppm was in the range of 90 to 100%.
On the same count and under the same terms, to `CCCCCCCCCCCCNC[C@H](O)[C@H](O)[C@H](O)CO` [Compound 45] belongs 70 to 90%; to `CCCCCCNC[C@H](O)[C@@H](O)[C@H](O)[C@H](O)CO` [Compound 7], 70 to 90%.
On to `CCCCCCCCCCCCCCCCCCNC[C@H](O)[C@@H](O)[C@H](O)[C@H](O)CO` [Compound 24, 1-deoxy-1-n-octadecylamino-D-glucitol], for which the inhibition at 500 ppm lay within 90 to 100%.
Take `CCCCCCCCCCNC[C@H](O)[C@H](O)[C@H](O)CO` [Compound 43]: the inhibition at 500 ppm was 90 to 100%.
Same read-out and setting: to `CCCCCCCCCCCCNC[C@H](O)[C@H](O)[C@@H](O)[C@H](C)O` [Compound 38] belongs 70 to 90%.
`CCCCCCCCCCCCNC[C@H](O)[C@@H](O)[C@H](O)[C@H](O)CO` [Compound 12]: the inhibition at 500 ppm was in the range of 90 to 100%.
Turning to `CCCCCCCCCCCCNC[C@H](O)[C@@H](O)[C@@H](O)[C@H](O)CO` [Compound 35], the inhibition at 500 ppm is 70 to 90%.
Same read-out and setting: to `CCCCCCCCCCCCCCCCCCNC[C@H](O)[C@@H](O)[C@H](O[C@@H]1O[C@H](CO)[C@@H](O)[C@H](O)[C@H]1O)[C@H](O)CO` [Compound 62] belongs 70 to 90%.
Still for that read-out and setting: to `CCCCCCCCCCCCCCCCCCNC[C@H](O)[C@@H](O)[C@H](O[C@H]1O[C@H](CO)[C@@H](O)[C@H](O)[C@H]1O)[C@H](O)CO` [Compound 56] belongs 90 to 100%.
With `CCCCCCCCCCNC[C@H](O)[C@@H](O)[C@H](O)CO` [Compound 50], the inhibition at 500 ppm was in the range of 70 to 90%.
As for `CCCCCCCCNC[C@H](O)[C@@H](O)[C@H](O)[C@H](O)CO` [Compound 8], the inhibition at 500 ppm fell in the range of 70 to 90%.
Consider `CCCCCCCCCCCCNCC[C@@H](O)[C@H](O)[C@H](O)CO` [Compound 41], for which the inhibition at 500 ppm lay within 90 to 100%.
On to `CCCCCCCCCCCCCCNC[C@@H](O)[C@@H](O)[C@H](O)[C@H](O)CO` [Compound 33], for which the inhibition at 500 ppm fell in the range of 70 to 90%.

The assay is the same for the next values; noted with them: Tobacco mosaic virus, read-out: Evaluation (rate of inhibition of lesion spot formation).
As to `CCCCNC[C@H](O)[C@@H](O)[C@H](O)[C@H](O)CO` [Compound 3], the inhibition at 500 ppm fell in the range of 70 to 90%.
